In US20030207933A1, “Compositions and methods for increasing the sensitivity of apoptosis-resistant tumor cells to inducers of apoptosis” (priority 2002, published 2003):
Entries after “also recorded” stand apart in the source; their conditions may differ.

Tests used:
HL-60 Bcl-2 cells = test: DNA fragmentation (release of 3H-labeled DNA fragments) in Bcl-2-transfected HL-60 cells; type: cell-based, human
Ramos B lymphoma cells = test: Dox cytotoxicity by trypan blue exclusion in Ramos cells; type: cell-based; settings: 24 hr
Procedure: In the present study, the sensitizing activity of W-188 and W-143 was tested in the Raji and Ramos cell lines. Since these two human B lymphoma lines naturally express high levels of anti-apoptotic Bcl-2 proteins, they may be more clinically relevant than the transfected HL-60-Bcl-2 line.
The sensitizing effects of W-143 and W-188 were first tested on these lines in vitro. […] Ramos cells were cultured with different concentrations of Dox with and without W-143 or W-188 at 20 μg/ml for 24 hr, and then viability assessed microscopically by counting at least 100 cells.

mice [1] = test: Acute single dose toxicity; type: in vivo; settings: 1000 mg/kg single dose
Procedure: The present study assessed the acute single-dose toxicity of W-188 and W-143.
Solutions of W-188 were dissolved in DMSO and injected i.p. in groups of three mice each as well as vehicle control at 500 mg/kg.
Since W-143 is water-soluble, higher doses could be tested.
Therefore, the MTD (maximum tolerated dose) for a single dose of either compound is estimated to be 500 mg/kg.

mice [2] = test: Multiple dose toxicity with histopathological analysis; type: in vivo
Procedure: In the present study, more extensive toxicity studies with histopathological analysis of seven different tissues was performed on W-143 at a commercial lab.
Groups of six mice (3 male and 3 females) each were given three i.p. injections at two day intervals of vehicle, doxorubicin 5 mg/kg alone, W-143 200 mg/kg alone or both together. On day 5 and day 15 after the last injection, mice were sacrificed, necropsied, and tissue samples processed. Tissues examined include bone marrow, liver, heart, small and large intestine, 1 sex organ, and kidney.

RIF-1 fibrosarcoma = RIF-1 fibrosarcoma tumor growth in vivo; set-up: species or system mice; settings: for Inhibition of tumor growth compared to vehicle control: day 15
Excerpt: The present study tested in the ability of W-188 to synergize with Dox and inhibit tumor growth in vivo. The RIF-1 fibrosarcoma model was used because this model has been well-characterized, and naturally expresses high Bcl-2 levels and has a consistent growth pattern (Nahabedian, M. Y., et al., J. Natl. Can. Inst., 1988, 80:739; Chang, M-J., et al., Cancer Res., 1994, 54:5380; Srivastana, M., et al., J. Biol. Chem., 2001, 276:15481).
Groups of five mice each were inoculated s.c. with RIF-1 cells. The tumors were allowed to grow for 12 days to a size of 0.5 cm diameter, which was designated day 0. The mice were then given five i.p. injections every other day with vehicle, Dox 2.5 mg/kg, Dox 5.0 mg/kg, W-188 100 mg/kg, and Dox 5.0 mg/kg+W-188 100 mg/kg. The mice were weighed and the tumor size measured every day.
The protocol was similar to that described for the W-188 experiment in Example 8, except that in this study, mice with established tumors received only three injections of W-143 or Dox every other day starting on day 0.

Bcl-2 = test: Western blot for expression of Bcl-2 in RIF-1 tumors in vivo; set-up: species or system mice; settings: day 15
Excerpt: Cells were dissociated, lysed, and the nuclei and mitochondria separated by differential centrifugation. RIF-1 cells cultured in vitro were processed in a similar manner as a positive control. Equal amounts of protein extracts were separated by electrophoresis and analyzed by Western blot for expression of Bcl-2. […] The pattern of Bcl-2 expression was similar in the nuclei, although the overall levels were lower than in the mitochondria. […] Most likely, this discrepancy can be explained by the fact that this line is transfected with exogenous Bcl-2, whereas the RIF-1 line expresses endogenous Bcl-2 under control of its natural promoter. […] Alternatively, W-188 and W-143 may differ in their mechanisms of action, although this conclusion seems less likely in view of the structural similarity of these two compounds.

Water solubility = type: physicochemical
[3] = Body weight of RIF-1 tumor bearing mice
Excerpt: Groups of five mice each were inoculated s.c. with RIF-1 cells. The tumors were allowed to grow for 12 days to a size of 0.5 cm diameter, which was designated day 0. […] The mice were weighed and the tumor size measured every day.

[4] = W-143 100 mg/kg alone, data not shown

In the case of CCC1=C(C)C(=O)NC1C (centres unmarked) [W-143, 3,5-dimethyl-4-ethyl-2-oxo-2,5-dihydropyrrole], the “Sensitization to etoposide-induced apoptosis” value (HL-60 Bcl-2 cells) is reported as “sensitize 1L-60-Bcl-2 cells to etoposide-induced apoptosis”, the “% DNA Fragmentation” value (HL-60 Bcl-2 cells; Exp 5, etoposide 10 μM + compound 10 μM) is reported as 34% and the “Toxicity of compound alone” value (Ramos B lymphoma cells; 20 μg/ml, no Dox) is reported as “completely nontoxic”. The “Increase of cytotoxicity mediated by Dox” value (Ramos B lymphoma cells; compound 20 μg/ml + Dox, FIG. 6) was “over two fold”, the Deaths (mice [1]) was “All three mice injected with 1000 mg/kg of W-143 died within 24 h” and the Histopathology (mice [2]; W-143 200 mg/kg alone, three i.p. injections at two day intervals, day 5) was “minor vacuolar changes in the liver”. For the same compound, the Histopathology (mice [2]; W-143 200 mg/kg alone, day 15) was “all tissues were normal”, the Histopathology (mice [2]; doxorubicin 5 mg/kg + W-143 200 mg/kg, three i.p. injections, day 5) was “minor vacuolar changes in the liver” and the Histopathology (mice [2]; doxorubicin 5 mg/kg + W-143 200 mg/kg, day 15) was “all tissues were normal”. For the same compound, the “Inhibition of tumor growth compared to vehicle control” value (RIF-1 fibrosarcoma; Dox + W-143 100 mg/kg, p=0.005) was 70%, the “Inhibition of tumor growth compared to vehicle control” value (RIF-1 fibrosarcoma; Dox + W-143 200 mg/kg, p=0.001) was 83% and the “Effect on tumor growth” value (RIF-1 fibrosarcoma; [4]) was “did not decrease tumor growth”. The “Effect on tumor growth” value (RIF-1 fibrosarcoma; W-143 200 mg/kg alone, three injections, FIG. 14) was “only a small effect on tumor growth”, the “Effect on tumor growth” value (RIF-1 fibrosarcoma; W-143 + Dox combined) was “synergistically inhibited tumor growth” and the “Bcl-2 expression in tumor cell mitochondria” value (Bcl-2; Dox + W-143, FIG. 16 lane 10) was “no detectable Bcl-2”. For the same compound, the “Bcl-2 expression in tumor cell mitochondria” value (Bcl-2; W-143 alone, FIG. 16) was “expressed high levels of Bcl-2”, the Water solubility (Water solubility) was “water soluble; also recorded: water-soluble” and the Body weight ([3]; Dox + W-143 100 mg/kg, any time point) was “did not show any greater weight loss”. The Body weight ([3]; Dox + W-143 200 mg/kg, day 13) was “weighed just as much as mice treated with Dox alone on day 13” and the Body weight [3, 4] was “weighed similar to the vehicle control mice”.
